Assay results: patent US5484725A, “Norbornane type ester hydrolase from Acetobacter pasteurianus” (Shionogi & Co., Ltd., priority 1993, dated 1996)

Assays:
[1] = tested on: norbornane type ester hydrolase; assay: Optically selective hydrolysis of (±)-exo-norbornane type esters by purified enzyme, optical resolution GC; assay type: biochemical, Acetobacter pasteurianus ATCC 12873; conditions: 1% ester, 30° C., 30 minutes
Description: Various kinds of the (±)-exo-norbornane type esters respectively comprising formyl, acetyl, propionyl, n-butyryl or isobutyryl as the acyl R in formula I were allowed to come in contact with an enzyme solution, respectively as a substrate. Each of the obtained products was extracted with an equal volume of chloroform. The extract was analyzed by gas chromatography using a column for optical resolution (produced by J & W Scientific). (-)-Norborneol was selectively produced in all the extracts. […] In detail, referring to FIG. 1, (+)-(1S, 2S, 4R)-exo-norbornyl acetate is hydrolysed to the corresponding (-)-norborneol by the use of the present enzyme. The obtained (-)-norborneol can be converted to (+)-d-norcamphor by oxidation. The remaining (-)-(1R, 2R, 4S)-exo-norbornyl acetate can be hydrolysed to the corresponding (+)-norborneol by the use of an alkali. The obtained (+)-norborneol can be converted to (-)-d-norcamphor by oxidation.
The purified enzyme obtained in Example 1 was allowed to come in contact with various kinds of 1% (±)-exo-norbornane type esters respectively including formyl, acetyl, propionyl, n-butyryl and isobutyryl as the acyl R in formula I. The reaction was conducted at 30° C. for 30 minutes. The resultant was extracted with an equal volume of chloroform. The extract was analyzed by gas chromatography using a column for optical resolution (produced by J & W Scientific). As is apparent from the results shown in Table 2, (-)-norborneol was enantio-selectively produced from any of the esters.

[2] = tested on: E. coli JM109 transformed by using the plasmid pUNA-Hf; assay: Hydrolysis of (±)-exo-norbornyl acetate by transformant E. coli JM109 with pUNA-Hf; assay type: cell-based; conditions: 1% substrate, 30° C., 10 minutes
Description: E. coli JM109 was transformed by using the plasmid pUNA-Hf. […] Then, the transformant was mixed with a 1% (±)-exo-norbornyl acetate mixture and allowed to stand at 30° C. for 10 minutes. The resulting mixture was analyzed by the method described in item 5 of Example 2. […] Thus, the optical selectivity was confirmed to be as high as that of the enzyme derived from Acetobacter pasteurianus obtained in Example 1.

[3] = tested on: E. coli JM103 including the plasmid pUNA-Hf; assay: Optically selective deacetylation of exo-norbornyl acetate by E. coli JM103/pUNA-Hf cell suspension; assay type: cell-based; conditions: 1% substrate, 30° C., 15 minutes
Description: (±)-Exo-norbornyl acetate used as a substrate was optically selectively deacetylated by E. coli JM103 including the plasmid pUNA-Hf as follows. The bacterial cells were collected from the cultured broth of E. coli JM103/pUNA-Hf as mentioned above by centrifugation, and suspended in an equal volume of a 0.1M phosphate buffer (pH 7.0). Then, 1% (±)-exo-norbornyl acetate was added to 1.5 ml of the obtained suspension, and the reaction was conducted at 30° C. for 15 minutes. The resultant reaction mixture was analyzed by the method described in item 5 of Example 2.

[4] = tested on: norbornane type ester hydrolase; assay: Effect of inhibitors on the enzyme (pNPA method); assay type: biochemical, Acetobacter pasteurianus ATCC 12873; conditions: 5 mM inhibitor, phosphate buffer pH 7.0, 30° C., 2 hours, then pNPA method
Description: The present enzyme was allowed to stand in phosphate buffers respectively including various inhibitors (5 mM) at pH 7.0 for 2 hours. Then, the activity of the enzyme was measured by the method described in item 3.
The above-mentioned activity measurement was performed with regard to 0.5 ml of the enzyme solution of 0.1M phosphate buffer (pH 7.0) containing 5 mM of one of the following inhibitors: ethylenediaminetetraacetic acid (EDTA), phenylmethylsulfonylfluoride (PMSF), N-tosyl-L-phenylalanyl chloromethyl ketone (TPCK), N-tosyl-L-lysyl chloromethyl ketone (TLCK), diisopropyl fluorophosphate (DFP), N-ethylmaleimide and iodoacetic acid. The enzyme solutions, including the respective inhibitors, were allowed to stand at 30° C. for 2 hours.

Produced norborneol (+)-isomer [1] [mg/mL] | Produced norborneol (-)-isomer [1] [mg/mL] | Structure (SMILES) | (+)-exo-norborneol produced [2] [mg/mL] | (-)-exo-norborneol produced [2] [mg/mL] | (+)-exo-norborneol produced [3] [mg/mL] | (-)-exo-norborneol produced [3] [mg/mL] | inhibition of the enzyme by inhibitor [4]
0.29 | 2.30 | CCCC(=O)O[C@H]1C[C@@H]2CC[C@H]1C2 (relative stereo) [n-butyryl] | – | – | – | – | –
0.45 | 3.39 | CCC(=O)O[C@H]1C[C@@H]2CC[C@H]1C2 (relative stereo) [Propionyl] | – | – | – | – | –

Further lines, the compound ahead of its results:

Structure (SMILES) | Produced norborneol (+)-isomer [1] [mg/mL] | Produced norborneol (-)-isomer [1] [mg/mL] | (+)-exo-norborneol produced [2] [mg/mL] | (-)-exo-norborneol produced [2] [mg/mL] | (+)-exo-norborneol produced [3] [mg/mL] | (-)-exo-norborneol produced [3] [mg/mL] | inhibition of the enzyme by inhibitor [4]
O=CO[C@H]1C[C@@H]2CC[C@H]1C2 (relative stereo) [Formyl] | 0.15 | 1.49 | – | – | – | – | –
CC(=O)O[C@H]1C[C@@H]2CC[C@H]1C2 (relative stereo) [Acetyl, (±)-exo-norbornyl acetate] | 0.19 | 2.48 | 0.15 | 1.68 | 0.15 | 1.91 | –
CC(C)C(=O)O[C@H]1C[C@@H]2CC[C@H]1C2 (relative stereo) [isobutyryl] | 0.69 | 2.76 | – | – | – | – | –
O=S(=O)(F)Cc1ccccc1 [PMSF, phenylmethylsulfonylfluoride] | – | – | – | – | – | – | completely inhibited
